The experiment deals with HL-60(TB) leukemia. The experiment can be described thus: growth of human tumour cells (NCI), 384-well format.

In PubChem BioAssay (NCI) one finds GI50 data, which are given here for 1 compound.

Molecules are shown by their SMILES.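 Abbreviation: GI50, concentration required for 50% inhibition of growth.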

As to `CNNCc1ccc(C(=O)NC(C)C)cc1`, the GI50 is 12.2 µM.
